Reference: patent publication US12371464B2, “Polypeptides and uses thereof” (MEDIMMUNE LIMITED, priority 2020, dated 2025)
One block for each molecule: values may come before it. Numbered stars: 1 amine (or outer) side, 2 acyl side, 3 side chain; on linkers, the order of the positions; unused ones are H or OH. Bridge positions count the residues as written; N and C are the ends. Square brackets hold non-standard residues; d marks the D form. Side chains are listed from the residue outwards. Peptide text beside a SMILES is read from it. * marks the point of attachment. C20 diacid = O=C(O)CCCCCCCCCCCCCCCCCCC(=O)*; C18 diacid = O=C(O)CCCCCCCCCCCCCCCCC(=O)*; γGlu = O=C(O)[C@H](CCC(=O)[*:2])N[*:1]; αMeF = C[C@](N)(Cc1ccccc1)C(=O)O; Dab = NCC[C@H](N)C(=O)O; Aib = CC(C)(N)C(=O)O

How the values were obtained:
[1] = target: T1, human amylin receptor (calcitonin receptor co-expressed with receptor activity modifying protein, RAMP3) (hAMYR3) (Homo sapiens, UniProt O60896+P30988); assay: cAMP production in 1321N1 cells with stable recombinant expression of human amylin receptor (hAMYR3); format: cell-based
T1 construct: expressed in transfected cells
T1 sequence (P30988 25-474): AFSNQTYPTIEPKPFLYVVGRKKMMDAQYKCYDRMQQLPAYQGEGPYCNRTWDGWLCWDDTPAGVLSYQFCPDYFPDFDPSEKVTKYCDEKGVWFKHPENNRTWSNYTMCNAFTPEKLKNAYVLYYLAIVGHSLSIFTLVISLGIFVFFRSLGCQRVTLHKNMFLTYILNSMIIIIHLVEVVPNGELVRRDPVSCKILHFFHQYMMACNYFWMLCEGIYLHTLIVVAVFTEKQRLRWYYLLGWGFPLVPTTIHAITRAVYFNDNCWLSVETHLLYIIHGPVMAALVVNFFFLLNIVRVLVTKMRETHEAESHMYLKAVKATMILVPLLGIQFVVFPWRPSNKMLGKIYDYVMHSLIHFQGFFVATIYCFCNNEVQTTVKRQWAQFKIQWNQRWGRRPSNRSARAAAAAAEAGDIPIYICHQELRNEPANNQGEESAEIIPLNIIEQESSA
T1 sequence (O60896 24-148 partner): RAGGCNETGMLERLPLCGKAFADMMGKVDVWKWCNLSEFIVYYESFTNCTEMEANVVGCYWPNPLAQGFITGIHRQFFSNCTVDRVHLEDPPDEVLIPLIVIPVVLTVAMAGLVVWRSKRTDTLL
Procedure: The functional activities of lipidated pramlintide analogue peptides, such as cAMP production, were tested in 1321N1 cell line with stable recombinant expression of human calcitonin receptor (hCTR) or human amylin receptor (calcitonin receptor co-expressed with receptor activity modifying protein, RAMP3) (hAMYR3) or HEK cells with stable recombinant expression of rat calcitonin receptor (rat CTR) or rat amylin receptor (calcitonin receptor co-expressed with receptor activity modifying protein, RAMP3) (Rat AMYR3).
Cryopreserved cell stock was thawed rapidly in a water-bath, suspended in assay buffer (0.1% BSA (Sigma #A3059) in HBSS (Sigma #H8264) with 25 mM HEPES, pH 7.4 and containing 0.5 mM IB MX (Sigma #17018)) and spun at 240×g for 5 minutes. Cells were re-suspended in assay buffer at a batch-dependent optimized concentration (e.g. hCTR cells at 0.125×10^5 cells/mL, hAMYR3 cells at 0.125×10^5 cells/mL, rat CTR cells at 1×10^5 cells/mL, rat AMYR3 at 2×10^5 cells/mL).
The test peptide stock was prepared in DMSO and diluted in assay buffer to reach stated concentrations and transferred in duplicates into a 384-black shallow well microtitre assay plate (Corning #3676). Cells were added to the assay plate, incubated at room temperature for 30 minutes and the CAMP level measured using CAMP dynamic 2 HTRF kit (Cisbio, Cat #62AM4PEJ), following the two step protocol as per manufacturer's recommendations. The plates were read on an Envision (Perkin Elmer) using excitation wavelength of 320 nm and emission wavelengths of 620 nm & 665 nm.
Data was transformed to % Delta F as described in the manufacturer's guidelines and analyzed as percent activation of maximal amylin or calcitonin effect by 4-parameter logistic fit to determine EC50 values. The selectivity of a peptide to hAMYR vs hCTR is defined as a ratio of EC50 values at the two receptors.

[2] = Thioflavin T fibrillation assay; format: physicochemical; settings: 1 mg/mL in 25 mM sodium acetate buffer pH 4.0, 37° C., 6 days, orbital shaking; >144 h = no increase
How it was run: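 Peptides at 1 mg/mL in 25 mM sodium acetate pH 4.0 were mixed with ThT (0.25 mM stock) and held 6 days at 37 °C with intermittent orbital shaking at 500–750 rpm. Fluorescence (ex 444/em 480 nm) was read every 30 min, with buffer baseline correction and 5 replicates. Value: mean time to a detectable fluorescence increase.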

lean rats = assay: Rat acute food intake study; format: in vivo, Sprague Dawley rats; settings: 20 nmol/kg subcutaneously
Procedure: Male Sprague Dawley rats were obtained from Taconic Denmark, ApS at approximately 7 weeks of age. . . . Rats were implanted with a microchip for identification, housed 4/cage with enrichment, free access to food and water, and allowed one week acclimatisation while non-invasive characterization was performed. Rats were on a 12:12 light:dark cycle that switches at 1 pm:1 am. Food intake was monitored via the HM2 system (Lafayette Instrument) that allows for monitoring in a home cage. As each rat enters an access tunnel to feed, an IR beam is broken, and the implanted microchip is read. Resulting changes to food weight is then assigned to the specific animal. Social order has shown no impact to overall feeding patterns and amounts.
Rats were sorted into groups based on Day-1 body weight and 24-hour accumulated food intake (n=7 per group). On Day 0 rats were weighed, then fasted for 6 hours. Thirty (30) minutes prior to the reintroduction of food, rats were dosed subcutaneously (5 ml/kg) with 20 nmol/kg of test compound or 60 nmol/kg peptide 1 (pramlintide) diluted in an appropriate vehicle, after which food was returned, and lights went out. Automated food intake was monitored for the following 3 days, and rats were weighed once per day.
Food intake per rat was batched into 1-hour intervals and integrated into Gubra's GubraView data management system. Discrete food intake data was exported into MS Excel from which cumulative food intake data was generated. Cumulative food intake data was then transposed into GraphPad Prism (v8.0.1) for analysis of dark period feeding

Structure (SMILES): CC[C@H](C)[C@H](NC(=O)[C@@H]1CCCN1C(=O)CNC(=O)[C@H](Cc1ccccc1)NC(=O)[C@H](CC(N)=O)NC(=O)C(C)(C)NC(=O)[C@H](CO)NC(=O)[C@H](CO)NC(=O)[C@H](Cc1c[nH]cn1)NC(=O)[C@@H](NC(=O)[C@H](CC(C)C)NC(=O)[C@H](Cc1ccccc1)NC(=O)[C@H](CC(N)=O)NC(=O)[C@H](C)NC(=O)[C@H](CC(C)C)NC(=O)[C@H](CCCNC(=N)N)NC(=O)[C@H](CCC(N)=O)NC(=O)[C@@H](NC(=O)[C@H](C)NC(=O)[C@@H]1CSSC[C@H](NC(=O)[C@@H](N)CCCCNC(=O)CC[C@H](NC(=O)CC[C@H](NC(=O)CCCCCCCCCCCCCCCCC(=O)O)C(=O)O)C(=O)O)C(=O)N[C@@H](CC(N)=O)C(=O)N[C@@H]([C@@H](C)O)C(=O)N[C@@H](C)C(=O)N[C@@H]([C@@H](C)O)C(=O)N1)[C@@H](C)O)C(C)C)C(=O)N[C@@H](CC(C)C)C(=O)N1CCC[C@H]1C(=O)N1CCC[C@H]1C(=O)N[C@H](C(=O)NC(C)(C)C(=O)N[C@H](C(=O)NCC(=O)N[C@@H](CO)C(=O)N[C@@H](CC(N)=O)C(=O)N[C@H](C(=O)N[C@@H](Cc1ccc(O)cc1)C(N)=O)[C@@H](C)O)C(C)C)[C@@H](C)O [Peptide 89, K(γE-γE-C18diacid)[CNTATC]ATQRLANFLVHSS(Aib)NFGPILPPT(Aib)VGSNTY-amide] (H-K([γGlu-γGlu-C18 diacid])CNTATCATQRLANFLVHSS[Aib]NFGPILPPT[Aib]VGSNTY-NH2; disulfide 2-7; N-terminus assumed)
- Ratio (selectivity hAMYR vs hCTR, ratio of EC50 values at the two receptors) ([1]; EC50 hCTR / EC50 hAMYR3): 18

- EC50 ([1]; cAMP production, 1321N1 cells expressing human amylin3 receptor): 1.2 nM
Structure (SMILES): CC[C@H](C)[C@H](NC(=O)[C@H](C)NC(=O)[C@@H]1CCCN1C(=O)[C@H](Cc1ccccc1)NC(=O)[C@H](CC(N)=O)NC(=O)C(C)(C)NC(=O)[C@H](CO)NC(=O)[C@H](CO)NC(=O)[C@H](Cc1c[nH]cn1)NC(=O)[C@@H](NC(=O)[C@H](CC(C)C)NC(=O)[C@H](Cc1ccccc1)NC(=O)[C@H](CC(N)=O)NC(=O)[C@H](C)NC(=O)[C@H](CC(C)C)NC(=O)[C@H](CCCNC(=N)N)NC(=O)[C@H](CCC(N)=O)NC(=O)[C@@H](NC(=O)[C@H](C)NC(=O)[C@@H]1CSSC[C@H](NC(=O)[C@@H](N)CCCCNC(=O)CC[C@H](NC(=O)CC[C@H](NC(=O)CCCCCCCCCCCCCCCCCCC(=O)O)C(=O)O)C(=O)O)C(=O)N[C@@H](CC(N)=O)C(=O)N[C@@H]([C@@H](C)O)C(=O)N[C@@H](C)C(=O)N[C@@H]([C@@H](C)O)C(=O)N1)[C@@H](C)O)C(C)C)C(=O)N[C@@H](CC(C)C)C(=O)N[C@@H](CO)C(=O)N1CCC[C@H]1C(=O)N[C@H](C(=O)N[C@@H](CC(N)=O)C(=O)N[C@H](C(=O)NCC(=O)N[C@@H](CO)C(=O)N[C@@H](CCN)C(=O)N[C@H](C(=O)N[C@@H](Cc1ccc(O)cc1)C(N)=O)[C@@H](C)O)C(C)C)[C@@H](C)O [Peptide 125, K(γE-γE-C20diacid)[CNTATC]ATQRLANFLVHSS(Aib)NFPAILSPTNVGS(Dab)TY-amide] (H-K([γGlu-γGlu-C20 diacid])CNTATCATQRLANFLVHSS[Aib]NFPAILSPTNVGS[Dab]TY-NH2; disulfide 2-7 (inferred))

- Time taken to detect increase in fluorescence intensity [2]: >144 h
Structure (SMILES): CC[C@H](C)[C@H](NC(=O)[C@@H]1CCCN1C(=O)CNC(=O)[C@](C)(Cc1ccccc1)NC(=O)[C@H](CC(N)=O)NC(=O)[C@H](CC(N)=O)NC(=O)[C@H](CO)NC(=O)[C@H](CO)NC(=O)[C@H](Cc1c[nH]cn1)NC(=O)[C@H](CCCNC(=N)N)NC(=O)[C@H](CC(C)C)NC(=O)[C@H](Cc1ccccc1)NC(=O)[C@H](CC(N)=O)NC(=O)[C@H](C)NC(=O)[C@H](CC(C)C)NC(=O)[C@H](CCCNC(=N)N)NC(=O)[C@H](CCC(N)=O)NC(=O)[C@@H](NC(=O)[C@H](C)NC(=O)[C@@H]1CSSC[C@H](NC(=O)[C@H](CCCCN)NC(=O)[C@@H](N)CCCCNC(=O)CC[C@H](NC(=O)CCCCCCCCCCCCCCCCC(=O)O)C(=O)O)C(=O)N[C@@H](CC(N)=O)C(=O)N[C@@H]([C@@H](C)O)C(=O)N[C@@H](C)C(=O)N[C@@H]([C@@H](C)O)C(=O)N1)[C@@H](C)O)C(=O)N[C@@H](CC(C)C)C(=O)N1CCC[C@H]1C(=O)N1CCC[C@H]1C(=O)N[C@H](C(=O)N[C@@H](CCC(=O)O)C(=O)N[C@H](C(=O)NCC(=O)N[C@@H](CO)C(=O)N[C@@H](CC(N)=O)C(=O)N[C@H](C(=O)N[C@@H](Cc1ccc(O)cc1)C(N)=O)[C@@H](C)O)C(C)C)[C@@H](C)O [Peptide 15, K(γE-C18diacid)K[CNTATC]ATQRLANFLRHSSNN(αMePhe)GPILPPTEVGSNTY-amide] (H-K([γGlu-C18 diacid])KCNTATCATQRLANFLRHSSNN[αMeF]GPILPPTEVGSNTY-NH2; disulfide 3-8; N-terminus assumed)
- Cummulative food intake (% vehicle treated intake) At 48 h (lean rats; at 48 h): 51 % vehicle treated intake

- Time taken to detect increase in fluorescence intensity [2]: >144 h
Structure (SMILES): CC[C@H](C)[C@H](NC(=O)[C@@H]1CCCN1C(=O)CNC(=O)[C@](C)(Cc1ccccc1)NC(=O)[C@H](CC(N)=O)NC(=O)[C@H](CC(N)=O)NC(=O)[C@H](CO)NC(=O)[C@H](CO)NC(=O)[C@H](Cc1c[nH]cn1)NC(=O)[C@H](CCCNC(=N)N)NC(=O)[C@H](CC(C)C)NC(=O)[C@H](Cc1ccccc1)NC(=O)[C@H](CCC(=O)O)NC(=O)[C@H](C)NC(=O)[C@H](CC(C)C)NC(=O)[C@H](CCCNC(=N)N)NC(=O)[C@H](CCC(N)=O)NC(=O)[C@@H](NC(=O)[C@H](C)NC(=O)[C@@H]1CSSC[C@H](NC(=O)[C@H](CCCCN)NC(=O)[C@@H](N)CCCCNC(=O)CC[C@H](NC(=O)CCCCCCCCCCCCCCCCC(=O)O)C(=O)O)C(=O)N[C@@H](CC(N)=O)C(=O)N[C@@H]([C@@H](C)O)C(=O)N[C@@H](C)C(=O)N[C@@H]([C@@H](C)O)C(=O)N1)[C@@H](C)O)C(=O)N[C@@H](CC(C)C)C(=O)N1CCC[C@H]1C(=O)N1CCC[C@H]1C(=O)N[C@H](C(=O)N[C@@H](CC(N)=O)C(=O)N[C@H](C(=O)NCC(=O)N[C@@H](CO)C(=O)N[C@@H](CC(N)=O)C(=O)N[C@H](C(=O)N[C@@H](Cc1ccc(O)cc1)C(N)=O)[C@@H](C)O)C(C)C)[C@@H](C)O [Peptide 12, K(γE-C18diacid)K[CNTATC]ATQRLAEFLRHSSNN(αMePhe)GPILPPTNVGSNTY-amide] (H-K([γGlu-C18 diacid])KCNTATCATQRLAEFLRHSSNN[αMeF]GPILPPTNVGSNTY-NH2; disulfide 3-8; N-terminus assumed)
- Cummulative food intake (% vehicle treated intake) At 12 h (lean rats; at 12 h): 9.4 % vehicle treated intake
- Cummulative food intake (% vehicle treated intake) At 24 h (lean rats; at 24 h): 7.5 % vehicle treated intake
